Results: patent US20020147237A1, “Preservation of bodily protein” (priority 2001, published 2002)

Experiments:
[1] = test system: anaesthetised piglet model; assay: blood gas and hemodynamic variables in anaesthetised piglets during i.v. infusion; assay type: in vivo; conditions: 60 min
Description: (§1) Food was withheld from the animals for twelve hours prior to the experiment, but they had free access to water. […] In addition, all animals were given an intravenous bolus of morphine 1 mg·kg^-1 and, following tracheotomy, pancuronium bromide 0.3 mg·kg^-1. […] After the last measurements, still under anaesthesia, the animals were killed with an overdose of potassium chloride. After induction of anaesthesia the animals were tracheotomised and ventilated through an 8 mm endotracheal tube (Mallincrodt Laboratories, Athlone, Ireland) with a Servo ventilator […] ([…], Solna, Sweden). Ventilation was maintained at 25 breaths per minute with a positive end-expiratory pressure of 5 cm of H2O. […] The body temperature was kept stable by means of a thermostat controlled heating pad and warmed intravenous infusions. After skin incisions, a catheter was introduced in the left external jugular vein and advanced to the right hepatic vein under fluoroscopic control. Its position was confirmed by a contrast injection. The right external jugular vein was used for placement of a central venous catheter and a 7F pulmonary artery thermodilution catheter. An arterial catheter was inserted in a subclavian branch and advanced to a central position. Through a small suprapubic incision, a urinary catheter was placed in the bladder. A cutdown was made to place an ultrasonic flow probe (Transonic Systems Inc., Ithaca, N.Y., USA) around the femoral artery and to cannulate the femoral vein for blood sampling. Arterial blood gases were analysed on an ABL300/OSM3 system (Radiometer, Copenhagen, Denmark). […] The column eluate was mixed with ninhydrin reagent for amino acid detection. […] Blood glucose was analysed on a Reflolux® II (Boehringer Mannheim, Germany), using the glucose-oxidase/peroxidase reaction. Arterial and hepatic venous blood was drawn for calculations of splanchnic blood flow. […] The mean value of at least three measurements was adopted. Calculation of splanchnic blood flow was carried out according to the constant dye infusion technique (10). […] Splanchnic plasma flow was calculated according to a formula derived from Fick's principle: [formula] […] Femoral artery plasma flow was calculated as blood flow (1-EVF). The turnover of amino acids, ammonium and urea were calculated as plasma flow times the arterio-venous plasma concentration difference with negative values indicating release and positive values uptake. After anaesthesia and surgical preparation the piglets were allowed a stabilisation period of one hour and randomly assigned to either Group 1 or Group 2.

[2] = test system: anaesthetised piglet model; assay: arterial plasma amino acid, NH4, urea and blood glucose concentrations in anaesthetised piglets; assay type: in vivo; conditions: for arterial glutamine level after 60 minutes (in words): after one hour of infusion of the single substance
Description: Food was withheld from the animals for twelve hours prior to the experiment, but they had free access to water. Anaesthesia was induced by an intramuscular injection of xylazine 2.2 mg·kg^-1, tiletamine 3 mg·kg^-1+zolazepam 3 mg·kg^-1 and atropine 0.04 mg·kg^-1. In addition, all animals were given an intravenous bolus of morphine 1 mg·kg^-1 and, following tracheotomy, pancuronium bromide 0.3 mg·kg^-1. […] After the last measurements, still under anaesthesia, the animals were killed with an overdose of potassium chloride. After induction of anaesthesia the animals were tracheotomised and ventilated through an 8 mm endotracheal tube (Mallincrodt Laboratories, Athlone, Ireland) with a Servo ventilator […] ([…], Solna, Sweden). Ventilation was maintained at 25 breaths per minute with a positive end-expiratory pressure of 5 cm of H2O. […] The body temperature was kept stable by means of a thermostat controlled heating pad and warmed intravenous infusions. After skin incisions, a catheter was introduced in the left external jugular vein and advanced to the right hepatic vein under fluoroscopic control. Its position was confirmed by a contrast injection. The right external jugular vein was used for placement of a central venous catheter and a 7F pulmonary artery thermodilution catheter. An arterial catheter was inserted in a subclavian branch and advanced to a central position. Through a small suprapubic incision, a urinary catheter was placed in the bladder. A cutdown was made to place an ultrasonic flow probe (Transonic Systems Inc., Ithaca, N.Y., USA) around the femoral artery and to cannulate the femoral vein for blood sampling. Arterial blood gases were analysed on an ABL300/OSM3 system (Radiometer, Copenhagen, Denmark). […] The column eluate was mixed with ninhydrin reagent for amino acid detection. […] Blood glucose was analysed on a Reflolux® II (Boehringer Mannheim, Germany), using the glucose-oxidase/peroxidase reaction. Arterial and hepatic venous blood was drawn for calculations of splanchnic blood flow. […] The mean value of at least three measurements was adopted. After anaesthesia and surgical preparation the piglets were allowed a stabilisation period of one hour and randomly assigned to either Group 1 or Group 2.

splanchnic area = assay: splanchnic turnover (plasma flow times arterio-venous difference; negative = release, positive = uptake); assay type: in vivo, piglets; conditions: 60 min
Description: as §1

hind leg skeletal muscle = assay: hind leg turnover (plasma flow times arterio-venous difference; negative = release, positive = uptake); assay type: in vivo, piglets; conditions: Group 1; 60 min; Dosage 1: NH4+ 12.3 μmol·kg^−1·min^−1 i.v. alone
Description: Food was withheld from the animals for twelve hours prior to the experiment, but they had free access to water. […] In addition, all animals were given an intravenous bolus of morphine 1 mg·kg^-1 and, following tracheotomy, pancuronium bromide 0.3 mg·kg^-1. […] After the last measurements, still under anaesthesia, the animals were killed with an overdose of potassium chloride. After induction of anaesthesia the animals were tracheotomised and ventilated through an 8 mm endotracheal tube (Mallincrodt Laboratories, Athlone, Ireland) with a Servo ventilator […] ([…], Solna, Sweden). […] The body temperature was kept stable by means of a thermostat controlled heating pad and warmed intravenous infusions. After skin incisions, a catheter was introduced in the left external jugular vein and advanced to the right hepatic vein under fluoroscopic control. Its position was confirmed by a contrast injection. The right external jugular vein was used for placement of a central venous catheter and a 7F pulmonary artery thermodilution catheter. An arterial catheter was inserted in a subclavian branch and advanced to a central position. Through a small suprapubic incision, a urinary catheter was placed in the bladder. A cutdown was made to place an ultrasonic flow probe (Transonic Systems Inc., Ithaca, N.Y., USA) around the femoral artery and to cannulate the femoral vein for blood sampling. Arterial blood gases were analysed on an ABL300/OSM3 system (Radiometer, Copenhagen, Denmark). […] The column eluate was mixed with ninhydrin reagent for amino acid detection. […] Blood glucose was analysed on a Reflolux® II (Boehringer Mannheim, Germany), using the glucose-oxidase/peroxidase reaction. Arterial and hepatic venous blood was drawn for calculations of splanchnic blood flow. […] The mean value of at least three measurements was adopted. […] Femoral artery plasma flow was calculated as blood flow (1-EVF). The turnover of amino acids, ammonium and urea were calculated as plasma flow times the arterio-venous plasma concentration difference with negative values indicating release and positive values uptake. After anaesthesia and surgical preparation the piglets were allowed a stabilisation period of one hour and randomly assigned to either Group 1 or Group 2.

[3] = Group 1, Dosage 1: NH4+ 12.3 μmol·kg^−1·min^−1 i.v. alone
[4] = Group 1, 60 min, Dosage 1: NH4+ 12.3 μmol·kg^−1·min^−1 i.v. alone
[5] = Group 2, Dosage 1: α-ketoglutarate 2.85 μmol·kg^−1·min^−1 i.v. alone
[6] = Group 2, 60 min, Dosage 1: α-ketoglutarate 2.85 μmol·kg^−1·min^−1 i.v. alone

Cl.N [NH4Cl, ammonium chloride]
Arterial pH [1, 3]: 7.43 ± 0.01 a
C.O. [1, 3]: 138 ± 17 mL/min/kg
Leg blood flow [1, 3]: 4.7 ± 0.4 mL/min/kg
PaCO2 [1, 3]: 5.18 ± 0.06 kPa
Spl. blood flow [1, 3]: 43 ± 5 mL/min/kg
Leg blood flow ([1]; Group 1, Dosage 1: NH4+ 12.3 μmol·kg^−1·min^−1 i.v. alone, listed as ammonium chloride): 4.7 ± 0.4 a ml · min^−1 · kg^−1
Glucose concentration [2, 4]: 5.5 ± 0.5 mmol/L
arterial Alanine concentration [2, 4]: 412 ± 44 a μmol · L^−1
arterial Arginine concentration [2, 4]: 80 ± 8 µmol/L
arterial Glutamate concentration [2, 4]: 191 ± 20 µmol/L
arterial Glutamine concentration [2, 4]: 450 ± 26 a μmol · L^−1
arterial NH4^+ concentration [2, 4]: 135 ± 14 a μmol · L^−1
arterial Total AA concentration [2, 4]: 3034 ± 139 µmol/L
arterial Urea concentration [2, 4]: 3.4 ± 0.3 mmol/L
arterial glutamine level after 60 minutes (in words) [2]: increased
Alanine turnover, splanchinc (splanchnic area; [3]): 2.22 ± 0.28 µmol/min/kg
Arginine turnover, splanchinc (splanchnic area; [3]): -0.23 ± 0.10 µmol/min/kg
FE (%)-NH4^+, splanchinc (splanchnic area; [3]): 81 ± 4 a %
Glutamate turnover, splanchinc (splanchnic area; [3]): -4.32 ± 0.28 µmol/min/kg
Glutamine turnover, splanchinc (splanchnic area; [3]): 2.59 ± 0.56 µmol/min/kg
NH4^+ turnover, splanchinc (splanchnic area; [3]): 3.09 ± 0.28 a μmol·min^−1·kg^−1
Total AA turnover, splanchinc (splanchnic area; [3]): 3.93 ± 2.08 µmol/min/kg
Urea turnover, splanchinc (splanchnic area; [3]): -3.2 ± 1.4 µmol/min/kg
Alanine turnover, hind leg (hind leg skeletal muscle): -0.13 ± 0.04 µmol/min/kg
Arginine turnover, hind leg (hind leg skeletal muscle): 0.01 ± 0.005 µmol/min/kg
FE (%)-NH4^+, hind leg (hind leg skeletal muscle): 46 ± 3 a %
Glutamate turnover, hind leg (hind leg skeletal muscle): 0.22 ± 0.03 µmol/min/kg
Glutamine turnover, hind leg (hind leg skeletal muscle): -0.09 ± 0.04 µmol/min/kg
NH4^+ turnover, hind leg (hind leg skeletal muscle): 0.22 ± 0.03 a μmol·min^−1·kg^−1
Total AA turnover, hind leg (hind leg skeletal muscle): 0.12 ± 0.23 µmol/min/kg
Urea turnover, hind leg (hind leg skeletal muscle): 0.2 ± 0.2 µmol/min/kg

O=C(O)CCC(=O)C(=O)O [α-KGA, α-ketoglutaric acid]
Arterial pH [1, 5]: 7.47 ± 0.01
C.O. [1, 5]: 144 ± 10 a ml · min^−1 kg^−1
PaCO2 [1, 5]: 5.27 ± 0.06 kPa
Glucose concentration [2, 6]: 5.6 ± 0.4 mmol/L
arterial Alanine concentration [2, 6]: 462 ± 34 µmol/L
arterial Arginine concentration [2, 6]: 75 ± 5 µmol/L
arterial Glutamate concentration [2, 6]: 264 ± 32 µmol/L
arterial Glutamine concentration [2, 6]: 361 ± 24 z μmol · L^−1
arterial Urea concentration [2, 6]: 2.7 ± 0.2 mmol/L
drop of arterial glutamine concentration compared to the baseline level ([2]; Group 2, after one hour of α-KGA infusion alone): 9±2%
arterial glutamine level after 60 minutes (in words) [2]: decreased
FE (%)-NH4^+, splanchinc (splanchnic area; [5]): 28 ± 10%
